Data set [1] can be described thus: Crystal size of rotor-stator exit stream observed under videomicroscope.
A short description of data set [2]: Primary crystal/particle size by image analysis. The class given is physicochemical. Conditions: Example 8: 15% (w/w) glycine 14 mL/min, ethanol 190 mL/min, anhydrous ethanol quench. How it is done:
The same procedure as in Example 7 was used, except the feed rate of the 15% (w/w) aqueous glycine solution was 14 mL/min and the feed rate of the anhydrous ethanol antisolvent was 190 mL/min. A quenching solution of anhydrous ethanol (>99%) was used.
Salicylic acid […] was dissolved in anhydrous ethanol (>99%) at a concentration of 24.8% (w/w). This solution was fed to the same apparatus as configured in Example 1. Water was co-fed as the antisolvent.

Consider `NCC(=O)O` [glycine, Glycine], for which the “mean size of crystals” value in data set [1] (Example 1: 5% (w/w) aqueous glycine 190 mL/min, ethanol 190 mL/min, 10,000 rpm, quench 50% water 50% ethanol) came out at 25 μm; in data set [1] (Example 3: as Example 1, rotor-stator speed 5,000 rpm), 40 μm; in data set [1] (Example 4: as Example 1, 15% (w/w) glycine solution), 40 μm; in data set [1] (Example 5: as Example 1, 15% (w/w) glycine, 5,000 rpm) it was 70 μm; in data set [1] (Example 7: 15% (w/w) glycine 21 mL/min, ethanol 190 mL/min), 6 μm. In addition, in data set [1] (Example 6: as Example 1, 15% (w/w) glycine, 0 rpm), the “mean length of crystals” value is 300 μm. Further, the “mean size of primary crystals” value in data set [2] is 4.4 μm.
